The subject of series [1] is mice. As to the kind of experiment: Spontaneous locomotor activity (Opto-Varimex-4 Auto-Track). The class given is in vivo, Albino Swiss mice. The following applies: for Distance traveled: mean ± SEM; for effects on locomotor activity: administered either alone or combined together, doses of Table 2 (traxoprodil 10 and 20 mg/kg), two-way ANOVA. The protocol: In order to avoid the risk of obtaining the false positive/negative effects in the FST caused by a possible influence of the tested drugs on the locomotor activity, spontaneous locomotor activity was measured using an animal activity meter Opto-Varimex-4 Auto-Track (Columbus Instruments, USA). The device consists of four transparent cages with a lid (43 × 43 × 32 cm), a set of four infrared emitters (each emitter has 16 laser beams), and four detectors monitoring animal movements. Each mouse was placed individually into the cage for 10 min. Spontaneous locomotor activity was evaluated between the 2nd and the 6th min, which corresponds with the time interval analyzed in the FST.
The results obtained in this test were presented as an arithmetic average distance (given in cm) traveled by a mouse ± SEM for each experimental group.

For series [2], the system named is mice. As to the kind of experiment: Forced swim test (FST) in mice. The class given is in vivo, Albino Swiss mice. As to conditions: for immobility time in FST vs control group: Fig. 1. The method, then: Each mouse was placed individually into a glass cylinder (height 25 cm, diameter 10 cm) containing 12–15 cm of water at 23–25 °C. The animal was left in the cylinder for 6 min. The total duration of immobility was recorded during the last 4 min of the 6-min testing period. The mouse was judged to be immobile when it ceased struggling and remained floating motionless in the water, making only the movements necessary to keep its head above the water level.

The nature of series [3]: Determination of antidepressants and traxoprodil in brains by HPLC. The following applies: for Antidepressants concentration in brain / concentration at 60 min: 60 min before decapitation, mean ± SEM; for change of concentration in brain tissue after joint administration with traxoprodil: traxoprodil 10 mg/kg co-administered, Student's t-test vs drug + saline; for concentration at 60 min: Albino Swiss, mouse, brain, intraperitoneal.
Description: Sixty minutes following administration of studied antidepressant drugs with or without traxoprodil, mice were decapitated to collect brains for pharmacokinetic studies. Immediately after the decapitation, the brains were dissected from the skull, washed with 0.9 % NaCl and frozen at −25 °C.
Brain concentrations of the studied antidepressants and traxoprodil were assayed by high performance liquid chromatography (HPLC) methods. The brains were homogenized in distilled water (1 : 4, w/v) with a tissue homogenizer TH220 (Omni International, Inc., Warrenton, VA, USA). For all studied antidepressant drugs, the extraction from brain homogenates were performed using the mixture of ethyl acetate : hexane (30 : 70, v/v). Amitriptyline (2 μg/ml) was used as an internal standard (IS) for imipramine and paroxetine (200 ng/ml) for fluoxetine and escitalopram. In order to isolate imipramine and its metabolite desipramine, to brain homogenate (0.5 ml) containing these drugs the IS was added and the samples were alkalized with 250 μl of 4 M NaOH. Then the samples were extracted with 5 ml of the extraction reagent by shaking for 20 min (IKA Vibrax VXR, Germany). After centrifugation at 3000 rpm for 20 min (Universal 32, Hettich, Germany), the organic layer was transferred to a new tube containing a 200 μl solution of 0.1 M H2SO4 and methanol (90 : 10, v/v), shaken for 0.5 h and then centrifuged for 15 min (3000 rpm). The organic layer was discarded and a 50 μl aliquot of the acidic solution was injected into the HPLC system. In the case of escitalopram, the procedure was similar with the exception that the extraction with an organic reagent was repeated two times, 1 ml of brain homogenate was used, and the volume of the acidic phase was 100 μl. In turn, to 1 ml of brain homogenates containing fluoxetine the IS was added and the samples were alkalized with 500 μl of 4 M NaOH. After the addition of 1 ml of the concentrated NaCl solution (10 g/50 ml), the samples were vortexed for 15 s and 5 ml of the extraction reagent was added. Then the samples were shaken for 20 min and centrifuged for 15 min at 3000 rpm. After the centrifugation, the organic layer was transferred into a conical glass tube and evaporated to dryness at 37 °C under a gentle stream of nitrogen in a water bath. The residue was dissolved with 100 μl of methanol and 50 μl of this solution was injected into the HPLC system.
The HPLC system (Thermo Separation Products, San Jose, CA, USA) consisted of a P100 isocratic pump, a UV100 variable-wavelength UV/VIS detector, a Rheodyne 7125 injector (Rheodyne, Cotati, CA, USA) with a 50 μl sample loop, and a Chromjet SP4400 computing integrator.
All analyses were performed on a 250 × 4.0 mm LiChrospher®100 RP-18 column with a particle size of 5 μm (Merck, Darmstadt, Germany) protected with a guard column (4 × 4 mm) with the same packing material. The mobile phase consisting of 50 mM potassium dihydrogen phosphate buffer (pH = 4.5) and acetonitrile was mixed at a ratio of 60 : 40 (v/v) for imipramine and fluoxetine, and 65 : 35 (v/v) for escitalopram and run at 1 ml/min. Chromatographic analysis was carried out at 21 °C and the analytical wavelength of 227 nm for fluoxetine, 240 nm for escitalopram, and 214 nm for imipramine.
In order to determine traxoprodil concentrations in mice brain, to 1 ml of brain homogenate containing this compound 2 ml of methanol was added and the samples were briefly vortexed and then shaken vigorously for 10 min (IKA Vibrax VXR, Germany) to precipitate proteins. After centrifugation for 20 min at 3000 rpm the supernatant (2 ml) was transferred into a conical glass tube and evaporated to dryness at 45 °C under a gentle stream of nitrogen in a water bath. The residue was dissolved with 100 μl of methanol and 40 μl of this solution were injected into the HPLC system.

In series [4] the test system is mice. Also on record: method as in Poleszak et al. [2013]. As to conditions: ref Poleszak et al. [2013]; cited from earlier work.

Where a name gives a salt, the structure may show the parent alone.

With `N[C@@H](Cc1ccc(Cl)cc1)C(=O)O` (racemic) [p-CPA, p-chlorophenylalanine], the Distance traveled in the series on mice [1] (Table 2 (E): p-CPA 200 mg/kg i.p. once daily over three days + saline) turned out to be 656.4 ± 107.4 cm. For the same compound, the “effects on locomotor activity” value in the series on mice [1] is on record as “no statistically significant effects”. Further, in the series on mice [2] (p-CPA 200 mg/kg i.p. per 3 days, alone, Fig. 3a), the “immobility time in FST” value is on record as “no effect”.
For the compound `COc1ccccc1N1CCN(CCN(C(=O)C2CCCCC2)c2ccccn2)CC1` [WAY 100,635], the Distance traveled in the series with mice [1] (Table 2 (F): WAY 0.1 mg/kg + saline i.p.) is 639.0 ± 59.16 cm. The “effects on locomotor activity” value in the series with mice [1] is on record as “no statistically significant effects”. Moreover, the “immobility time in FST” value in the series with mice [2] (WAY 100,635 0.1 mg/kg i.p. alone, Fig. 3b) is reported as “no effect”.
In the case of `CNCCCN1c2ccccc2CCc2ccccc21` [desipramine], the “Antidepressants concentration in brain” value in series [3] (imipramine 15 mg/kg + saline i.p., n=10) is “(101.0 ± 19.86) ng/g”; in series [3] (imipramine 15 mg/kg + traxoprodil 10 mg/kg i.p., n=10), “(724.0 ± 109.0***) ng/g”. Besides, in series [3], the “change of concentration in brain tissue after joint administration with traxoprodil” value is recorded as “significant increase”.
`CN(C)CCC[C@@]1(c2ccc(F)cc2)OCc2cc(C#N)ccc21` [escitalopram, escitalopram oxalate]: the Distance traveled with mice [1] (Table 2 (C): escitalopram 2 mg/kg + saline i.p.) is reported as 957.1 ± 174.1 cm. Also, in the series on mice [1], the “effects on locomotor activity” value is given as “no statistically significant effects”. For the same compound, the concentration at 60 min in series [3] (2 mg/kg, Antidepressants concentration in brain, escitalopram 2 mg/kg + saline i.p., n=10) stood at 296 ± 17.7 ng/g; in series [3] (Antidepressants concentration in brain, escitalopram 2 mg/kg + traxoprodil 10 mg/kg i.p., n=10), 361 ± 20.5 ng/g. The “change of concentration in brain tissue after joint administration with traxoprodil” value in series [3] is “significant increase”. In addition, the “immobility time in FST” value with mice [2] (escitalopram 2 mg/kg given alone i.p., Fig. 2c) is given as “no effect”.
Consider `CNCCC(Oc1ccc(C(F)(F)F)cc1)c1ccccc1` (centres unmarked) [fluoxetine, fluoxetine hydrochloride], for which, in the series with mice [1] (Table 2 (B): fluoxetine 5 mg/kg + saline i.p.), the Distance traveled was determined as 667.8 ± 111.1 cm. In addition, the “effects on locomotor activity” value in the series with mice [1] was “no statistically significant effects”. For the same compound, in the series on mice [2] (fluoxetine 5 mg/kg given alone i.p., Fig. 2b), the “immobility time in FST” value is recorded as “no effect”.
`CC(C(O)c1ccc(O)cc1)N1CCC(Cc2ccccc2)CC1` (centres unmarked) [ifenprodil]: the “dose range with antidepressant effect in the FST” value with mice [4] was 20 to 40 mg/kg.
Turning to `CN(C)CCCN1c2ccccc2CCc2ccccc21` [imipramine, imipramine hydrochloride], the Distance traveled in the series with mice [1] (Table 2 (A): imipramine 15 mg/kg + saline i.p.) was determined as 492.3 ± 57.11 cm; with mice [1] (imipramine 30 mg/kg i.p. 60 min before test, 2nd-6th min, n=8, Table 1), 653.9 ± 99.38 cm. Besides, the “effects on locomotor activity” value in the series with mice [1] is listed as “no statistically significant effects”. Besides, the concentration at 60 min in series [3] (15 mg/kg, Antidepressants concentration in brain, imipramine 15 mg/kg + saline i.p., n=10) amounted to 2060 ± 253 ng/g; in series [3] (Antidepressants concentration in brain, imipramine 15 mg/kg + traxoprodil 10 mg/kg i.p., n=10), 3210 ± 374 ng/g. Moreover, in the series with mice [2] (imipramine 15 mg/kg given alone i.p., Fig. 2a), the “immobility time in FST” value was “no effect”.
Consider `CCOc1ccccc1OC(c1ccccc1)C1CNCCO1` (centres unmarked) [reboxetine, reboxetine mesylate], for which, in the series on mice [1] (Table 2 (D): reboxetine 2.5 mg/kg + saline i.p.), the Distance traveled came out at 566.1 ± 54.75 cm. In the series with mice [2] (reboxetine 2.5 mg/kg given alone i.p., Fig. 2d), the “immobility time in FST” value is on record as “no effect”.
Turning to `Cc1nc2sccn2c(=O)c1CCN1CCC(=C(c2ccc(F)cc2)c2ccc(F)cc2)CC1` [ritanserin], in the series with mice [1] (Table 2 (G): ritanserin 4 mg/kg + saline i.p.), the Distance traveled turned out to be 607.5 ± 79.78 cm. Moreover, the “effects on locomotor activity” value in the series with mice [1] was “no statistically significant effects”. For the same compound, the “immobility time in FST” value in the series on mice [2] (ritanserin 4 mg/kg i.p. alone, Fig. 3c) is reported as “no effect”.
For the compound `C[C@@H]([C@@H](O)c1ccc(O)cc1)N1CCC(O)(c2ccccc2)CC1` [traxoprodil], the Distance traveled with mice [1] (Table 2 (A): traxoprodil 10 mg/kg + saline i.p.) is reported as 629.1 ± 79.29 cm; in the series on mice [1] (Table 2 (B): traxoprodil 10 mg/kg + saline i.p.), 629.1 ± 79.29 cm; with mice [1] (Table 2 (C): traxoprodil 10 mg/kg + saline i.p.) it was 986.8 ± 278.5 cm; in the series with mice [1] (Table 2 (D): traxoprodil 10 mg/kg + saline i.p.) it was 629.1 ± 79.29 cm; in the series on mice [1] (Table 2 (E): traxoprodil 20 mg/kg + saline i.p.) it was 731.1 ± 145.1 cm; in the series on mice [1] (Table 2 (F): traxoprodil 20 mg/kg + saline i.p.), 687.5 ± 71.45 cm. The Distance traveled in the series with mice [1] (Table 2 (G): traxoprodil 20 mg/kg + saline i.p.) turned out to be 687.5 ± 71.45 cm; in the series on mice [1] (traxoprodil 5 mg/kg i.p. 60 min before test, 2nd-6th min, n=8, Table 1), 915.0 ± 92.10 cm; in the series on mice [1] (traxoprodil 10 mg/kg i.p. 60 min before test, 2nd-6th min, n=8, Table 1), 738.5 ± 49.93 cm; in the series on mice [1] (traxoprodil 20 mg/kg i.p. 60 min before test, 2nd-6th min, n=8, Table 1), 912.0 ± 75.87 cm; in the series with mice [1] (traxoprodil 40 mg/kg i.p. 60 min before test, 2nd-6th min, n=8, Table 1), 789.1 ± 119.8 cm. Further, the “effects on locomotor activity” value with mice [1] was “no statistically significant effects”. Besides, the “effect on locomotor activity versus control group” value in the series with mice [1] (all tested doses (5, 10, 20, and 40 mg/kg), one-way ANOVA) was “no statistically significant effect”. Also, the concentration at 60 min was 76.4 ± 13.5 ng/g in series [3] (10 mg/kg, Traxoprodil concentration in brain, traxoprodil 10 mg/kg + saline ip, n=7–8); 249 ± 49.2 ng/g in series [3] (Traxoprodil concentration in brain, traxoprodil 10 mg/kg + escitalopram 2 mg/kg ip); 151 ± 10.3 ng/g in series [3] (Traxoprodil concentration in brain, traxoprodil 10 mg/kg + fluoxetine 5 mg/kg ip); 119 ± 22.5 ng/g in series [3] (Traxoprodil concentration in brain, traxoprodil 10 mg/kg + imipramine 15 mg/kg ip). The “change of traxoprodil concentration in brain” value in series [3] (joint administration with escitalopram vs traxoprodil group, t-test p < 0.01) was “significant increase”; in series [3] (joint administration with fluoxetine vs traxoprodil group, t-test p < 0.001), “significant increase”; in series [3] (joint administration with imipramine vs traxoprodil group, t-test p > 0.05), “No statistically significant changes”. Moreover, in the series on mice [2] (highest traxoprodil dose used (40 mg/kg) vs imipramine 30 mg/kg), the “FST effect compared with imipramine at an active dose” value is reported as “effect similar to the action of imipramine”. For the same compound, the “immobility time in FST vs control group” value in the series on mice [2] (traxoprodil 5 mg/kg i.p. 60 min before test) is “no statistically significant effect”; with mice [2] (traxoprodil 10 mg/kg i.p. 60 min before test), “no statistically significant effect”; in the series on mice [2] (traxoprodil 20 mg/kg i.p. 60 min before test) it was “significantly reduced”; in the series with mice [2] (traxoprodil 40 mg/kg i.p. 60 min before test) it was “significantly reduced”. For the same compound, the “immobility time in FST” value in the series with mice [2] (traxoprodil 10 mg/kg given alone i.p., Fig. 2a) is “no effect”; with mice [2] (traxoprodil 20 mg/kg i.p., WAY 100,635 experiment, Fig. 3b) it was “significantly reduced”; in the series with mice [2] (traxoprodil 20 mg/kg i.p., p-CPA experiment, Fig. 3a), “significantly reduced”; with mice [2] (traxoprodil 20 mg/kg i.p., ritanserin experiment, Fig. 3c), “significantly reduced”.

The values are drawn from PMC4933725, “Traxoprodil, a selective antagonist of the NR2B subunit of the NMDA receptor, potentiates the antidepressant-like effects of certain antidepressant drugs in the forced swim test in mice” (Metabolic Brain Disease, 2016).
